According to ChEMBL document CHEMBL1134833, “Convergent synthesis of potent peptide inhibitors of the Grb2-SH2 domain by palladium catalyzed coupling of a terminal alkyne” (Bioorg Med Chem Lett, 2001):

biological target: Growth factor receptor-bound protein 2 (Homo sapiens, UniProt P62993); experiment: Inhibitory concentration required against Src homology (SH2) domain of Growth factor receptor bound protein 2 by ELISA binding assay
Sequence (P62993 whole entry): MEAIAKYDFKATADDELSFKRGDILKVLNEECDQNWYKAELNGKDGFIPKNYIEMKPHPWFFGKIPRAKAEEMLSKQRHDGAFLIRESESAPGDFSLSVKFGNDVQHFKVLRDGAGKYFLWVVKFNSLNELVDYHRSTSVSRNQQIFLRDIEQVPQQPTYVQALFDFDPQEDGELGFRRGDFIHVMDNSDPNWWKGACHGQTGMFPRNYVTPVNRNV

| Structure (SMILES) | IC50 [nM] |
| --- | --- |
| COc1ccc2c(CCCNC(=O)[C@H](CC(N)=O)NC(=O)C3(NC(=O)[C@H](Cc4ccc(CP(=O)(O)O)cc4)NC(C)=O)CCCCC3)cccc2c1 | 130 |
| CC(=O)N[C@@H](Cc1ccc(CP(=O)(O)O)cc1)C(=O)NC1(C(=O)N[C@@H](CC(N)=O)C(=O)NCCCc2cccc3cc(O)ccc23)CCCCC1 | 42.7 |
| CC(=O)N[C@@H](Cc1ccc(CP(=O)(O)O)cc1)C(=O)NC1(C(=O)N[C@@H](CC(N)=O)C(=O)NCCCc2ccc3cccc(O)c3c2)CCCCC1 | 11.1 |
| COc1cc2cccc(CCCNC(=O)[C@H](CC(N)=O)NC(=O)C3(NC(=O)[C@H](Cc4ccc(CP(=O)(O)O)cc4)NC(C)=O)CCCCC3)c2cc1OC | 84.4 |
| CC(=O)N[C@@H](Cc1ccc(CP(=O)(O)O)cc1)C(=O)NC1(C(=O)N[C@@H](CC(N)=O)C(=O)NCCCc2cccc3ccc(O)cc23)CCCCC1 | 24.6 |
| CC(=O)N[C@@H](Cc1ccc(CP(=O)(O)O)cc1)C(=O)NC1(C(=O)N[C@@H](CC(N)=O)C(=O)NCCCc2cccc3ccccc23)CCCCC1 | 42.9 |
| CC(=O)N[C@@H](Cc1ccc(CP(=O)(O)O)cc1)C(=O)NC1(C(=O)N[C@@H](CC(N)=O)C(=O)NCCCc2c(O)ccc3ccccc23)CCCCC1 [CGP-78850] | 43 |
